Data as given in the NIST ThermoML archive (doi:10.1021/acs.jced.7b00195).
Numbers after ± are expanded uncertainties.

Settings: Gas, Burnett expansion method

CCF [fluoroethane]
Settings	mass density [kg/m3]
278.38 K, 201.28 kPa	4.281 ± 0.043
278.38 K, 432.22 kPa	9.679 ± 0.076
278.39 K, 297.17 kPa	6.437 ± 0.056
283.26 K, 303.56 kPa	6.463 ± 0.055
283.26 K, 442.81 kPa	9.718 ± 0.076
283.27 K, 205.41 kPa	4.298 ± 0.043
288.2 K, 209.64 kPa	4.316 ± 0.043
288.21 K, 309.96 kPa	6.489 ± 0.055
288.21 K, 452.92 kPa	9.758 ± 0.075
293.09 K, 213.69 kPa	4.313 ± 0.042
293.09 K, 316.32 kPa	6.485 ± 0.055
293.1 K, 143.41 kPa	2.868 ± 0.035
293.1 K, 462.98 kPa	9.751 ± 0.075
298.65 K, 323.48 kPa	6.515 ± 0.055
298.65 K, 682.94 kPa	14.731 ± 0.11
298.66 K, 146.61 kPa	2.881 ± 0.035
298.66 K, 218.72 kPa	4.333 ± 0.042
298.66 K, 474.3 kPa	9.797 ± 0.076
303.31 K, 149.42 kPa	2.894 ± 0.034
303.31 K, 222.77 kPa	4.351 ± 0.042
303.31 K, 329.55 kPa	6.543 ± 0.054
303.31 K, 697.8 kPa	14.795 ± 0.11
303.32 K, 483.63 kPa	9.838 ± 0.076
308.96 K, 227.65 kPa	4.351 ± 0.041
308.96 K, 336.88 kPa	6.542 ± 0.054
308.97 K, 494.66 kPa	9.837 ± 0.075
308.97 K, 715.6 kPa	14.793 ± 0.11
308.98 K, 152.32 kPa	2.893 ± 0.034
313.8 K, 155.2 kPa	2.907 ± 0.034
313.8 K, 343.12 kPa	6.572 ± 0.054
313.8 K, 1036.8 kPa	22.346 ± 0.16
313.81 K, 231.58 kPa	4.371 ± 0.041
313.81 K, 504.31 kPa	9.882 ± 0.075
313.81 K, 730.5 kPa	14.86 ± 0.11
318.66 K, 513.87 kPa	9.903 ± 0.075
318.67 K, 158.08 kPa	2.912 ± 0.033
318.67 K, 235.35 kPa	4.379 ± 0.041
318.67 K, 349.39 kPa	6.585 ± 0.054
318.67 K, 745.44 kPa	14.89 ± 0.11
318.67 K, 1060.9 kPa	22.39 ± 0.16
323.51 K, 355.59 kPa	6.601 ± 0.054
323.51 K, 760.32 kPa	14.926 ± 0.11
323.51 K, 1084.6 kPa	22.444 ± 0.16
323.52 K, 160.85 kPa	2.919 ± 0.033
323.52 K, 239.62 kPa	4.39 ± 0.041
323.52 K, 523.39 kPa	9.926 ± 0.075
328.42 K, 243.93 kPa	4.403 ± 0.04
328.42 K, 532.98 kPa	9.955 ± 0.075
328.42 K, 775.13 kPa	14.969 ± 0.11
328.42 K, 1108.3 kPa	22.509 ± 0.16
328.42 K, 1539.5 kPa	33.847 ± 0.24
328.43 K, 163.8 kPa	2.928 ± 0.033
328.43 K, 361.91 kPa	6.62 ± 0.054
333.29 K, 541.96 kPa	9.995 ± 0.075
333.3 K, 248.18 kPa	4.42 ± 0.04
333.3 K, 368.16 kPa	6.647 ± 0.054
333.3 K, 789.86 kPa	15.029 ± 0.11
333.3 K, 1131.5 kPa	22.599 ± 0.16
333.31 K, 166.7 kPa	2.94 ± 0.033
338.15 K, 252.41 kPa	4.426 ± 0.04
338.15 K, 374.3 kPa	6.655 ± 0.053
338.15 K, 551.38 kPa	10.008 ± 0.075
338.15 K, 1614.5 kPa	34.027 ± 0.24
338.16 K, 169.6 kPa	2.943 ± 0.032
338.16 K, 804.44 kPa	15.048 ± 0.11
338.16 K, 1154.5 kPa	22.629 ± 0.16
343.01 K, 256.69 kPa	4.428 ± 0.04
343.01 K, 380.56 kPa	6.659 ± 0.053
343.01 K, 818.91 kPa	15.056 ± 0.11
343.02 K, 560.82 kPa	10.013 ± 0.075
343.02 K, 1177.4 kPa	22.64 ± 0.16
343.02 K, 1651.3 kPa	34.043 ± 0.24
343.02 K, 2227.5 kPa	51.191 ± 0.36
343.03 K, 172.53 kPa	2.945 ± 0.032
347.85 K, 175.51 kPa	2.953 ± 0.032
347.85 K, 570.22 kPa	10.041 ± 0.075
347.85 K, 833.34 kPa	15.099 ± 0.11
347.85 K, 1687.6 kPa	34.14 ± 0.24
347.85 K, 2287.3 kPa	51.336 ± 0.36
347.86 K, 260.96 kPa	4.441 ± 0.04
347.86 K, 386.83 kPa	6.677 ± 0.053
347.86 K, 1200 kPa	22.704 ± 0.16
352.74 K, 265.25 kPa	4.438 ± 0.039
352.74 K, 393.24 kPa	6.674 ± 0.053
352.74 K, 579.94 kPa	10.036 ± 0.075
352.74 K, 1724 kPa	34.121 ± 0.24
352.74 K, 2347.1 kPa	51.308 ± 0.36
352.74 K, 3018.7 kPa	77.15 ± 0.54
352.75 K, 178.77 kPa	2.951 ± 0.032
352.75 K, 847.82 kPa	15.09 ± 0.11
352.75 K, 1222.3 kPa	22.691 ± 0.16
358.61 K, 248.43 kPa	4.077 ± 0.037
358.61 K, 544.42 kPa	9.219 ± 0.069
358.61 K, 1159 kPa	20.845 ± 0.15
358.61 K, 1648.3 kPa	31.345 ± 0.22
358.61 K, 2274.6 kPa	47.133 ± 0.33
358.62 K, 368.4 kPa	6.131 ± 0.049
358.62 K, 799.33 kPa	13.862 ± 0.1
363.36 K, 252.39 kPa	4.076 ± 0.037
363.36 K, 553.08 kPa	9.217 ± 0.069
363.36 K, 2325.7 kPa	47.122 ± 0.33
363.36 K, 3082.3 kPa	70.859 ± 0.5
363.37 K, 374.25 kPa	6.129 ± 0.049
363.37 K, 811.8 kPa	13.859 ± 0.1
363.37 K, 1178.9 kPa	20.84 ± 0.15
363.37 K, 1680 kPa	31.337 ± 0.22
368.26 K, 256.54 kPa	4.087 ± 0.037
368.26 K, 380.26 kPa	6.145 ± 0.049
368.26 K, 561.93 kPa	9.24 ± 0.069
368.26 K, 825.1 kPa	13.895 ± 0.1
368.26 K, 1199.4 kPa	20.894 ± 0.15
368.26 K, 1712.2 kPa	31.418 ± 0.22
368.26 K, 2378.2 kPa	47.243 ± 0.33
368.27 K, 3165.9 kPa	71.038 ± 0.5
373.13 K, 838.52 kPa	13.867 ± 0.1
373.14 K, 260.73 kPa	4.078 ± 0.037
373.14 K, 386.27 kPa	6.133 ± 0.049
373.14 K, 1219.8 kPa	20.851 ± 0.15
373.14 K, 1744.1 kPa	31.354 ± 0.22
373.14 K, 2430.1 kPa	47.146 ± 0.33
373.14 K, 3250.9 kPa	70.894 ± 0.5
373.14 K, 4091.8 kPa	106.604 ± 0.75
373.15 K, 570.74 kPa	9.221 ± 0.069
378.01 K, 264.55 kPa	4.087 ± 0.036
378.01 K, 391.92 kPa	6.145 ± 0.049
378.01 K, 851.98 kPa	13.896 ± 0.1
378.01 K, 1240 kPa	20.895 ± 0.15
378.01 K, 1776.1 kPa	31.42 ± 0.22
378.01 K, 2481.6 kPa	47.245 ± 0.33
378.01 K, 3335.4 kPa	71.042 ± 0.5
378.02 K, 579.55 kPa	9.241 ± 0.069
378.02 K, 4235.2 kPa	106.825 ± 0.75
